Experimental data: patent publication US8541410B2, “Sulfur substituted sulfonylaminocarboxylic acid N-arylamides, their preparation, their use and pharmaceutical preparations comprising them” (Sanofi-aventis Deutschland GmbH, priority 1998, dated 2013)

Legend:
rat aorta rings = assay: Relaxation of rat aorta (phenylephrine-precontracted rings); type: cell-based, rat (Wistar-Kyoto); settings: 50% relaxation of phenylephrine (1 μM) contraction
From the text: For this test, normotensive male Wistar-Kyoto rats were sacrificed by a blow to the neck. The abdominal cavity and the thorax were opened by a medium stemotomy. The descending aorta was subsequently removed, freed of connective tissue and divided into 8 rings of a length of approximately 4 mm. The tip of a pair of tweezers was introduced into the lumen of 4 of the 8 rings. The endothelium was removed by carefully rolling the rings over the tip of the pair of tweezers. All 8 aorta rings (4 with endothelium and 4 without endothelium) were subsequently suspended in an organ bath (Schuler-Organbad; Hugo Sachs Elektronik) at a constant temperature of 37° C. for the isometric determination of the contractile tone. For 30 minutes, the rings were calibrated at a resting tension of 0.1 g in carbonated (95% O2; 5% CO2) Krebs-Henseleit solution (composition: Na^+ 144.0 mM; K^+ 5.9 mM; Cl^− 126.9 mM; Ca^2+ 1.6 mM; […] 1.2 mM; H2PO4^− 1.2 mM; SO4^2− 1.2 mM; HCO3^− 25.0 mM; D-glucose 11.1 mM) of pH 7.4. Additionally, 1 μmol/l of indomethacin were added to the Krebs-Henseleit solution to inhibit prostaglandin biosynthesis. The rings were subsequently precontracted by addition of phenylephrine (concentration in the solution: 1 μM) and the endothelium-dependent relaxation or the functional loss of the endothelium was tested by addition of acetylcholine (concentration in the solution: 1 μM). After a 30-minute washing period, the rings were then again precontracted by addition of phenylephrine (1 μM), and the relaxing action of the test substances of the formula I was determined by administration of cumulative doses of the latter. The data were evaluated by standard methods. Given is the concentration IC50 by which contraction is inhibited by 50% (50% relaxation).

[1] = target: T1, soluble guanylate cyclase (sGC) (Bos taurus, UniProt P16068); assay: Activation of the soluble guanylate cyclase (cGMP enzyme immunoassay); type: biochemical, bovine; settings: concentration c 50 μM; n-fold stimulation of basal enzyme activity
T1 construct: The sGC which was employed had been isolated from bovine lung; from tissue; host or cells: bovine lung
T1 sequence (P16068 1-619): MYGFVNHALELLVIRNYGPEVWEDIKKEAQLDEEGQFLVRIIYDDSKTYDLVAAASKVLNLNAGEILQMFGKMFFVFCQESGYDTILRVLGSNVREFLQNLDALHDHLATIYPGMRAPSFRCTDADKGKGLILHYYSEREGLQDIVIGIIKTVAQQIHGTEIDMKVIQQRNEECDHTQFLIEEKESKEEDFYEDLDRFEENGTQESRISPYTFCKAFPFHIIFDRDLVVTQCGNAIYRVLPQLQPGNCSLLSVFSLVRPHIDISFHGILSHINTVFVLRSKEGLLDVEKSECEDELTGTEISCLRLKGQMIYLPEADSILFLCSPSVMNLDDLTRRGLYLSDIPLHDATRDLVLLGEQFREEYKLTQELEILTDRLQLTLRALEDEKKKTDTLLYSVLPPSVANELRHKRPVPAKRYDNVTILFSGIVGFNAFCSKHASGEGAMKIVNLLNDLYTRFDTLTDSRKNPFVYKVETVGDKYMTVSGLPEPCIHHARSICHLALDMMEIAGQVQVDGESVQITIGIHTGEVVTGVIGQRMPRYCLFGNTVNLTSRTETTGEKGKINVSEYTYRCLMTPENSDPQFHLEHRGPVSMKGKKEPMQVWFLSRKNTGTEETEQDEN
T1 sequence (P19687 1-691 partner): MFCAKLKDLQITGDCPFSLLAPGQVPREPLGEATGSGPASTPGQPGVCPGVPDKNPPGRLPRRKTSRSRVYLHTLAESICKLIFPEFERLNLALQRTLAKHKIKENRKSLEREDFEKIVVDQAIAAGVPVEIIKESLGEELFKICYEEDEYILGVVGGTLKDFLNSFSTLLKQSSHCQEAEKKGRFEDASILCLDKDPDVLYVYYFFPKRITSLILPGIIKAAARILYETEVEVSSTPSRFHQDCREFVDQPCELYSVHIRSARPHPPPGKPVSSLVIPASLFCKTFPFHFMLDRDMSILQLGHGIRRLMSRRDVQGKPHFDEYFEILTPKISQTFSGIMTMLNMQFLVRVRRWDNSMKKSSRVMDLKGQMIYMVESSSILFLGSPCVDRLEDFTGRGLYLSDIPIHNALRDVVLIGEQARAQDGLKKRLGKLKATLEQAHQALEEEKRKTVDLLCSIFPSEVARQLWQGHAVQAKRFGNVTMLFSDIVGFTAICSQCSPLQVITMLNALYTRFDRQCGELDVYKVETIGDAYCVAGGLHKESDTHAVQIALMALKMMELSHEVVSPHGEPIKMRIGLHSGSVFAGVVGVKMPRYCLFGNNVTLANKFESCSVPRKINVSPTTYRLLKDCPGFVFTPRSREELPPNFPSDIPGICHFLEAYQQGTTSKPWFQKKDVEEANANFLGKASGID

pig = assay: Hemodynamic effect in the pig; type: in vivo, pig (German landrace); settings: 10 mg/kg i.d., anesthetized pigs
Procedure: Three pigs (German landrace) were anesthetized (Ketamine 20 mg/kg i.m., Methomidate 8 mg/kg i.p., Xylazine 2.5 mg/kg i.m. and Pentobarbital 25 mg/kg i.v. as a bolus plus 0.16 mg/kg per minute). The trachea was intubated and the animals were given artificial respiration with air. Oxygen was added to keep the blood gas parameters in the normal range. To record the blood pressure (BP; BP(s)=systolic blood pressure, BP(d)=diastolic blood pressure) by means of a Statham 23 Db pressure transducer a catheter was inserted into the right A. Femoralis. The left ventricular pressure (LVP), the left ventricular end-diastolic pressure (LVEDP), the contractility (dP/dt) and the heart rate (HR) were determined with a Millar PC 350 catheter “tip manometer” which was inserted into the […] ventricle. After a stabilization period of the hemodynamic parameters of 30 minutes the test substance was administered in the indicated dose into the exposed duodenum by means of a catheter. The determined data were evaluated according to standard methods. Given are the means and the standard deviations (M±SEM) of the starting values and of the maximal changes of the individual parameters (=maximal effects).

| SMILES | IC50 (rat aorta rings; ring with endothelium) | IC50 (rat aorta rings; ring without endothelium) | n-fold stimulation [1] | BP(d) duration of action (pig) | BP(s) duration of action (pig) | HR duration of action (pig) | LVEDP duration of action (pig) | dP/dtmax duration of action (pig) | dP/dtmax maximal alteration (pig; contractility, M±SEM) | BP(d) maximal alteration (pig; diastolic blood pressure, M±SEM) | HR maximal alteration (pig; heart rate, M±SEM) | LVEDP maximal alteration (pig; left ventricular end-diastolic pressure, M±SEM) | BP(s) maximal alteration (pig; systolic blood pressure, M±SEM) |
| --- | --- | --- | --- | --- | --- | --- | --- | --- | --- | --- | --- | --- | --- |
| O=C(Nc1ccc(S(=O)(=O)N2CCOCC2)cc1)c1cc(Cl)ccc1NS(=O)(=O)c1ccc(Cl)s1 [Example 129, 5-Chloro-2-(5-chloro-thiophene-2-sulfonylamino)-N-(4-(morpholine-4-sulfonyl)-phenyl)-benzamide] | 460 nM | 310 nM | 8.6 | – | – | – | – | – | – | – | – | – | – |
| COc1cc(NS(=O)(=O)c2ccc(Cl)cc2)c(C(=O)Nc2ccc(S(=O)(=O)N3CCSCC3)cc2)cc1OC [Example 59, 2-(4-Chloro-phenylsulfonylamino)-4,5-dimethoxy-N-(4-(thiomorpholine-4-sulfonyl)-phenyl)-benzamide] | 520 nM | 270 nM | 34.8 | – | – | – | – | – | – | – | – | – | – |
| COc1cc(NS(=O)(=O)c2ccc(Cl)cc2)c(C(=O)Nc2ccc(S(=O)(=O)N3C[C@@H](C)O[C@@H](C)C3)cc2)cc1OC [Example 88, 2-(4-Chloro-phenylsulfonylamino)-N-(4-(cis-2,6-dimethyl-morpholine-4-sulfonyl)-phenyl)-4,5-dimethoxy-benzamide] | 670 nM | 290 nM | 24.4 | >0.125 days | >10800 s | >180 min | >180 min | >180 min | −633 ± 33 mm Hg/sec | −20 ± 8 mm Hg | −8 ± 2 beats/min | −1.3 ± 0.3 mm Hg | −23 ± 6 mm Hg |
